Test results taken from patent US20160208016A1, “Anti-ADAM12 antibodies for the treatment of cancer” (UNIVERSITY OF COPENHAGEN, priority 2013, published 2016).

What was measured:
[1] = tested on: 293-VnR cells transfected with ADAM12Δcyt; experiment: In situ solid-phase gelatinase assay, 293-VnR cells transfected with ADAM12Δcyt; assay type: cell-based, human; conditions: 10 μM overnight vs vehicle only
Description: Data are expressed as the mean gelatin degradation (±s.d.) relative to the mean ADAM12Δcyt degradation value (set at 100%). (B) In situ solid-phase gelatinase assay of 293-VnR cells transfected with ADAM12Δcyt or control vector and treated with GM6001 (10 μM), TAPI-2 (10 μM), or vehicle only (control) overnight. Cells were stained for ADAM12 and for the nucleus (DAPI). The mean number of gelatin-degrading ADAM12-positive cells (±s.d.) is presented as a percentage of the total number of ADAM12-positive cells. (C) In situ solid-phase gelatinase assay of 293-VnR cells cotransfected with ADAM12Δcyt and control or MMP-14 siRNA. Mean data (±s.d.) are expressed relative to the mean siRNA control degradation value (set at 100%). Inset, Western blots of total cell lysates analyzed for MMP-14. […] Gelatin degradation was quantified by measuring the degraded area in μm^2 and correlated to the number of cells. […]
(A) In situ solid-phase gelatinase assay of HEK293 cells transfected with ADAM12Δcyt and immunostained for ADAM12, and DAPI staining. […] Precipitates and input samples were analysed by Western blotting with indicated antibodies. […] (E) Mean percentage cell-surface staining of αVβ3 integrin (LM609 antibody staining) for MCF7, MCF7-A12Δcyt, MCF7-A12Δcyt+dox, and MDA-MB-231 cell lines analyzed by FACS. […]

MCF7-A12Δcyt cells = experiment: Type I collagen-induced apoptosis in 3-D collagen cultures, MCF7-A12Δcyt; assay type: cell-based, human; conditions: 10 μM GM6001 every second day
Description: (§1) (A) MCF7, MCF7-A12Δcyt, and MCF7-A12Δcyt+dox cell lines were embedded in 3-D collagen and the mean percentage of apoptotic bodies (±s.d.) was determined from >500 cells per experiment. (B) Western blot analysis of ADAM12, MMP-14, BIK, and BIM from cells recovered from 3-D collagen. The bar graph depicts levels of BIK and BIM; determined by quantification of the band intensities (using ImageJ software) and normalized to actin. The MCF7 level was set to 1. (C,D) Mean percentage of apoptotic bodies (±s.d.) from >500 cells of 3-D collagen cultures of MCF7, MCF7-A12Δcyt, and MCF7-A12Δcyt+dox (C) and MDA-MB-231. (D) Cells treated every second day with control mouse IgG, 10 μg/ml 8F8, or 10 μM GM6001. (E) Western blot of cells recovered from 3-D cultures of MDA-MB-231 cells analyzed for MMP-14 after siRNA treatment. […]
(§2) (A) A representative micrograph of MCF7-A12Δcyt+dox cells extracted from 3-D cultures and stained with DAPI. Apoptosis was evaluated by counting the percentage of the number of cells with chromatin condensation and nuclear fragmentation (arrow=apoptotic bodies). […]
(§3) Cells were seeded on dishes coated with gelatin (10 μg/ml) coupled to Oregon Green® 488 dye (G-13186) from Molecular Probes (Life Technologies, Naerum, Denmark). […] For each experiment more than 1000 cells were counted and same type of experiment was repeated independently at least three times. […]

wild-type MCF7 cells = experiment: Type I collagen-induced apoptosis in 3-D collagen cultures, wild-type MCF7; assay type: cell-based, human; conditions: 10 μg/ml 8F8 or 10 μM GM6001 every second day
Description: as §1, §2, §3

MCF7-A12Δcyt+dox cells = experiment: Type I collagen-induced apoptosis in 3-D collagen cultures, MCF7-A12Δcyt+dox; assay type: cell-based, human; conditions: 10 μg/ml 8F8 or 10 μM GM6001 every second day
Description: as §1, §2, §3

MDA-MB-231 cells = experiment: Apoptosis in 3-D collagen cultures, MDA-MB-231; assay type: cell-based, human; conditions: 10 μg/ml 8F8 or 10 μM GM6001 every second day, compared with control cells
Description: as §1, §2, §3

αVβ3 integrin = αVβ3 integrin (UniProt P06756); experiment: cell-based or functional assay
UniProt P06756, sequence (P06756 31-1048, chain 1 of 2): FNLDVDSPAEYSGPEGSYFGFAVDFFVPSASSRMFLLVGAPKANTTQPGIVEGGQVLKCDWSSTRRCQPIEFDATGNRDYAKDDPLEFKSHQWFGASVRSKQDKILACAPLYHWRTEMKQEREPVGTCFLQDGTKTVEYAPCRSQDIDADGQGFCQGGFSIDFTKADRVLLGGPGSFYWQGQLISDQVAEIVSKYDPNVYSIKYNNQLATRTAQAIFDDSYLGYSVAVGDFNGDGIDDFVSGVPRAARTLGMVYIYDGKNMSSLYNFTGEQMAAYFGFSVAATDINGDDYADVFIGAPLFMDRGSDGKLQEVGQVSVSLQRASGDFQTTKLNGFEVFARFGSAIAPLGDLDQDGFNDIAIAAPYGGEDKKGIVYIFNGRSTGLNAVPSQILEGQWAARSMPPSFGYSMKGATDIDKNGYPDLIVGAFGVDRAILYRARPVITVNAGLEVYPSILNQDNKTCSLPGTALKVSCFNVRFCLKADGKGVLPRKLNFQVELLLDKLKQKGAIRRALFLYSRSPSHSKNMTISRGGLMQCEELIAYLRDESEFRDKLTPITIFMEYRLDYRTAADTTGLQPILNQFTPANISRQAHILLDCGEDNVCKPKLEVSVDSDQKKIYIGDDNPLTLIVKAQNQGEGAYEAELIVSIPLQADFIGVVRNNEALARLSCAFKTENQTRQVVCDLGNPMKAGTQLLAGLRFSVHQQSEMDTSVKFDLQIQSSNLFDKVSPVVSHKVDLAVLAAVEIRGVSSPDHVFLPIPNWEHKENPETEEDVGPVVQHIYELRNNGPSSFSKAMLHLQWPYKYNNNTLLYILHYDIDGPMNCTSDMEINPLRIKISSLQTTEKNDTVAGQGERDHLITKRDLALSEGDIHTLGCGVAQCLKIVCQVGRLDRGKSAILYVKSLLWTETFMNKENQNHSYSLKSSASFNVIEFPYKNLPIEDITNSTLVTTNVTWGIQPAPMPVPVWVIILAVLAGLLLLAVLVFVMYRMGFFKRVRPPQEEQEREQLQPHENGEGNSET
UniProt P06756, sequence (P05106 27-788, chain 2 of 2, further chain): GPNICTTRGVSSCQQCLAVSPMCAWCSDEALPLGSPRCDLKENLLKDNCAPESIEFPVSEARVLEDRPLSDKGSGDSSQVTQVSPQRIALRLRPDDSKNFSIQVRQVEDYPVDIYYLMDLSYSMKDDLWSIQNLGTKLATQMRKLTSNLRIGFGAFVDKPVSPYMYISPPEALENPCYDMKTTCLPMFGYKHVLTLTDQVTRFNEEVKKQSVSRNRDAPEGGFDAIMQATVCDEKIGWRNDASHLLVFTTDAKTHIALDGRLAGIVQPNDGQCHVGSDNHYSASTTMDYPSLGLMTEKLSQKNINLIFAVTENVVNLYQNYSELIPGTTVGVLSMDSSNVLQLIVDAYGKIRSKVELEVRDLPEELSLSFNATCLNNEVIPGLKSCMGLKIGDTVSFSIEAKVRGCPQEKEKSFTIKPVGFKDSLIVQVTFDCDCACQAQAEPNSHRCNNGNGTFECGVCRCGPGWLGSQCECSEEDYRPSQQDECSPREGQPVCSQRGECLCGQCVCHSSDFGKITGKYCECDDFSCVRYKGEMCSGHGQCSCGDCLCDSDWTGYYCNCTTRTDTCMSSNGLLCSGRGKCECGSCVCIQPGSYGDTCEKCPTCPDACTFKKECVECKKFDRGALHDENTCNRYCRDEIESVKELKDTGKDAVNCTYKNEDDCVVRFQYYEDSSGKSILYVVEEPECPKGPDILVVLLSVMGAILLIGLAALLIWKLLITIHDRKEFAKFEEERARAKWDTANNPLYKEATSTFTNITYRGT

| Compound | gelatin degradation [1] | fraction of apoptotic bodies (MCF7-A12Δcyt cells) | effect on apoptosis (apoptotic bodies, ApopTag) (wild-type MCF7 cells) | effect on apoptosis (apoptotic bodies, ApopTag) (MCF7-A12Δcyt+dox cells) | levels of apoptotic bodies (MDA-MB-231 cells) | reduction of gelatin degradation in MCF7-A12Δcyt cell cultures (αVβ3 integrin) [%] |
| --- | --- | --- | --- | --- | --- | --- |
| CNC(=O)[C@H](Cc1c[nH]c2ccccc12)NC(=O)[C@@H](CC(=O)NO)CC(C)C [GM6001] | significant reduction | significantly increased | no effects | no effects | significantly increased | – |
| CC(C)C[C@H](CC(=O)NO)C(=O)N[C@H](C(=O)N[C@@H](C)C(=O)NCCN)C(C)(C)C [TAPI-2] | significant reduction | – | – | – | – | – |
| mouse monoclonal antibody LM609 against αVβ3 integrin (Chemicon/Millipore) | – | – | – | – | – | 80 |
